Assay: xn = mol fraction of the nth substance listed

ClC(Cl)(Cl)Cl + CCC(C)=O
Conditions | viscosity [mPa·s]
298 K, 101.3 kPa, x1 = 0.1477 | 0.485
298 K, 101.3 kPa, x1 = 0.2858 | 0.543
298 K, 101.3 kPa, x1 = 0.4787 | 0.648
298 K, 101.3 kPa, x1 = 0.629 | 0.697
298 K, 101.3 kPa, x1 = 0.8296 | 0.792
298.15 K, 101.33 kPa, x2 = 0.1954 | 0.736
298.15 K, 101.33 kPa, x2 = 0.397 | 0.623
298.15 K, 101.33 kPa, x2 = 0.405 | 0.62
298.15 K, 101.33 kPa, x2 = 0.499 | 0.576
298.15 K, 101.33 kPa, x2 = 0.509 | 0.576
298.15 K, 101.33 kPa, x2 = 0.745 | 0.483
298.15 K, 101.33 kPa, x2 = 0.752 | 0.472
318 K, 101.3 kPa, x1 = 0.1385 | 0.3877
318 K, 101.3 kPa, x1 = 0.2858 | 0.4379
318 K, 101.3 kPa, x1 = 0.4821 | 0.5052
318 K, 101.3 kPa, x1 = 0.6311 | 0.5625
318 K, 101.3 kPa, x1 = 0.8418 | 0.6572

ClC(Cl)(Cl)Cl + CC(C)CO
viscosity [mPa·s], 101 kPa
Conditions | x2 = 0.0126 | x2 = 0.0461 | x2 = 0.0853 | x2 = 0.2088 | x2 = 0.2911 | x2 = 0.411 | x2 = 0.5341 | x2 = 0.7116 | x2 = 0.8407
298.15 K | 0.888 | 0.896 | 0.914 | 0.995 | 1.079 | 1.251 | 1.521 | 2.076 | 2.631
308.15 K | 0.774 | 0.774 | 0.791 | 0.845 | 0.909 | 1.023 | 1.206 | 1.581 | 1.942
318.15 K | 0.679 | 0.679 | 0.695 | 0.726 | 0.77 | 0.851 | 0.978 | 1.235 | 1.482

CCCCCCCCCCCCCC(=O)O + CC(C)[C@@H]1CC[C@@H](C)C[C@H]1O
100 kPa, x1 = 0.2
Conditions | viscosity [mPa·s]
298.15 K | 33.99
303.15 K | 24.78
308.15 K | 18.54
313.15 K | 14.21
318.15 K | 11.11
323.15 K | 8.85

ClC(Cl)(Cl)Cl + CCCCCC
298.15 K, 101 kPa
Conditions | viscosity [mPa·s]
x1 = 0.1 | 0.3171
x1 = 0.1729 | 0.3422
x1 = 0.2 | 0.3432
x1 = 0.3 | 0.3743
x1 = 0.3869 | 0.4102
x1 = 0.4 | 0.4105
x1 = 0.5 | 0.4532
x1 = 0.5869 | 0.5067
x1 = 0.6 | 0.5052
x1 = 0.7 | 0.5705
x1 = 0.7906 | 0.6461
x1 = 0.8 | 0.6544
x1 = 0.9 | 0.7635

CCCOC(C)=O + CCCCCCCCO
viscosity [mPa·s], 101 kPa
Conditions | x2 = 0.075 | x2 = 0.1542 | x2 = 0.2382 | x2 = 0.3272 | x2 = 0.4218 | x2 = 0.5225 | x2 = 0.6299 | x2 = 0.7448 | x2 = 0.8678
298.15 K | 0.692 | 0.851 | 1.053 | 1.316 | 1.666 | 2.143 | 2.823 | 3.811 | 5.28
303.15 K | 0.638 | 0.776 | 0.955 | 1.185 | 1.488 | 1.897 | 2.47 | 3.302 | 4.526
308.15 K | 0.584 | 0.705 | 0.862 | 1.061 | 1.323 | 1.671 | 2.154 | 2.848 | 3.868
313.15 K | 0.533 | 0.638 | 0.774 | 0.95 | 1.177 | 1.475 | 1.885 | 2.468 | 3.326

CCC(C)(O)CC + CO
298.15 K, 101.33 kPa
Conditions | viscosity [mPa·s]
x2 = 0.1032 | 3.799
x2 = 0.2156 | 3.553
x2 = 0.3158 | 3.317
x2 = 0.4019 | 3.048
x2 = 0.5004 | 2.6
x2 = 0.6084 | 2.079
x2 = 0.7088 | 1.568
x2 = 0.8021 | 1.16
x2 = 0.9011 | 0.8027

ClC(Cl)(Cl)Cl + O=C1CCCCC1
298.15 K, 101 kPa
Conditions | viscosity [mPa·s]
x2 = 0.0951 | 1.017
x2 = 0.2086 | 1.109
x2 = 0.3074 | 1.193
x2 = 0.4109 | 1.289
x2 = 0.5072 | 1.381
x2 = 0.6004 | 1.476
x2 = 0.7013 | 1.577
x2 = 0.8072 | 1.669
x2 = 0.9023 | 1.754

CCN(CC)CC + CCCCO
303.15 K, 101 kPa
Conditions | viscosity [mPa·s]
x1 = 0.01087 | 2.223
x1 = 0.02221 | 2.193
x1 = 0.0326 | 2.162
x1 = 0.04176 | 2.133
x1 = 0.05247 | 2.098
x1 = 0.06249 | 2.076
x1 = 0.07262 | 2.052
x1 = 0.08419 | 2.019
x1 = 0.09512 | 1.991

CCN(CC)CC + CCCCCC
viscosity [mPa·s], 101.33 kPa
Conditions | x1 = 0.1076 | x1 = 0.2064 | x1 = 0.4089 | x1 = 0.5106 | x1 = 0.6081 | x1 = 0.804 | x1 = 0.9018
303.15 K | 0.2744 | 0.276 | 0.2838 | 0.2911 | 0.3002 | 0.3248 | 0.3408
313.15 K | 0.2432 | 0.2489 | 0.2626 | 0.271 | 0.2799 | 0.3004 | 0.3125

CCCC(C)=O + CC(C)=O
viscosity [mPa·s], 101 kPa
Conditions | x1 = 0.2 | x1 = 0.4 | x1 = 0.6 | x1 = 0.8
293.15 K | 0.355 | 0.391 | 0.429 | 0.467
313.15 K | 0.294 | 0.322 | 0.349 | 0.377
